Reference: US4933347A, “Diamidines and bis(imidazolines) for the treatment of and prophylaxis against pneumocystis carinii pneumonia” (University of North Carolina at Chapel Hill, priority 1988, dated 1990)

Experiments:
[1] = Solubility (insoluble, not tested in animals); format: physicochemical
[2] = test system: Pneumocystis carinii; assay: Treatment of Pneumocystis carinii pneumonia in Sprague-Dawley rats (extent of disease by histologic score); format: in vivo, male Sprague-Dawley rats; details: for Extent of Disease by Histologic Score: number of animals with score 0.5 / Extent of Disease by Histologic Score: number of animals with score 1 / Extent of Disease by Histologic Score: number of animals with score 2 / Extent of Disease by Histologic Score: number of animals with score 3 / Extent of Disease by Histologic Score: number of animals with score 4: 14 days; for Extent of Disease by Histologic Score: number of animals with score 0.5 / Extent of disease by histologic score (combined): number of animals in scoring group 0.5: 0.5 = <10 cysts found per 2 sections; for Extent of Disease by Histologic Score: number of animals with score 1 / Extent of disease by histologic score (combined): number of animals in scoring group 1: 1 = scattered cysts, <5% of lung involved; for Extent of Disease by Histologic Score: number of animals with score 2 / Extent of disease by histologic score (combined): number of animals in scoring group 2: 2 = scattered cysts; for Extent of Disease by Histologic Score: number of animals with score 2: 5-10% lung involved or small foci of infection; for Extent of Disease by Histologic Score: number of animals with score 3 / Extent of disease by histologic score (combined): number of animals in scoring group 3: 3 = scattered cysts; for Extent of Disease by Histologic Score: number of animals with score 3: 10-50% of lung involved with some intense areas of infection; for Extent of Disease by Histologic Score: number of animals with score 4: 4 = >50% of lung involved with many intense areas of focal infection; for Extent of disease by histologic score (combined): number of animals in scoring group 0.5 / Extent of disease by histologic score (combined): number of animals in scoring group 1 / Extent of disease by histologic score (combined): number of animals in scoring group 2 / Extent of disease by histologic score (combined): number of animals in scoring group 3 / Extent of disease by histologic score (combined): number of animals in scoring group 4: Table XII composite; for Extent of disease by histologic score (combined): number of animals in scoring group 2: 5-10% of lung involved; for Extent of disease by histologic score (combined): number of animals in scoring group 3: 10-50% of lung involved; for Extent of disease by histologic score (combined): number of animals in scoring group 4: 4 = >50% of lung involved; for Efficacy in treating Pneumocystis carinii (words): 2.5 mg/kg
[3] = Toxicity of amidines in rats (standard laboratory procedure); format: in vivo
Protocol: Compounds having the structure represented by Formula I were synthesized in accordance with the appropriate procedures discussed previously. The reaction schemes shown in Charts I-III specifically identify the methodology used to synthesize the compounds of the respective examples. The compounds which were synthesized are shown in Table IA and the elemental analysis and melting points of the compounds are shown in Table IB. Most of the compounds were tested for toxicity in rats using standard laboratory procedure and the results of that toxicity testing are shown in Table XII. The compounds of Examples 31, 32, and 34 were not synthesized but may be synthesized in the general manner discussed previously.

[4] = test system: Pneumocystis carinii; details: in vivo; cited from earlier work
[5] = dose as in value, else not given in Table XIII (10 mg/kg test dose)

Row | Structure (SMILES) | Extent of Disease by Histologic Score: number of animals with score 0.5 ([2]; 2.5 mg/kg i.v. daily) [animals] | Extent of Disease by Histologic Score: number of animals with score 1 ([2]; 2.5 mg/kg i.v. daily) [animals] | Extent of Disease by Histologic Score: number of animals with score 2 ([2]; 2.5 mg/kg i.v. daily) [animals] | Extent of Disease by Histologic Score: number of animals with score 3 ([2]; 2.5 mg/kg i.v. daily) [animals] | Extent of Disease by Histologic Score: number of animals with score 4 ([2]; 2.5 mg/kg i.v. daily) [animals] | Extent of disease by histologic score (combined): number of animals in scoring group 0.5 ([2]; tested at 2.5 mg/kg) [animals] | Extent of disease by histologic score (combined): number of animals in scoring group 1 ([2]; tested at 2.5 mg/kg) [animals] | Extent of disease by histologic score (combined): number of animals in scoring group 2 ([2]; tested at 2.5 mg/kg) [animals] | Extent of disease by histologic score (combined): number of animals in scoring group 3 ([2]; tested at 2.5 mg/kg) [animals] | Extent of disease by histologic score (combined): number of animals in scoring group 4 ([2]; tested at 2.5 mg/kg) [animals] | Toxicity of amidines: Effect ([3]; rat, in vivo, 2.5 mg/kg) | other results
1 | N=C(N)c1ccc(OCCOc2ccc(C(=N)N)cc2)cc1 [Example 1] | – | – | – | – | – | – | – | – | – | – | – | Solubility (not tested in animals - insoluble) [1]: insoluble
2 | N=C(N)c1ccc(OCCOc2ccc(C(=N)N)cc2[N+](=O)[O-])c([N+](=O)[O-])c1 [Example 2] | – | – | – | – | – | – | – | – | – | – | – | Solubility (not tested in animals - insoluble) [1]: insoluble
3 | N=C(N)c1ccc(OCCCCCOc2ccc(C(=N)N)cc2Br)c(Br)c1 [Example 16] | – | – | – | – | – | – | – | – | – | – | – | Solubility (not tested in animals - insoluble) [1]: insoluble
4 | N=C(N)c1ccc(OCCCCCOc2ccc(C(=N)N)cc2Cl)c(Cl)c1 [Example 25] | 0 | 0 | 0 | 4 | 4 | 0 | 0 | 0 | 4 | 4 | None | –
5 | N=C(N)c1ccc(NCCCNc2ccc(C(=N)N)cc2[N+](=O)[O-])c([N+](=O)[O-])c1 [Example 35] | – | – | – | – | – | – | – | – | – | – | – | Extent of Disease by Histologic Score: number of animals with score 0.5 ([2]; 5 mg/kg i.v. daily): 0 animals; Extent of Disease by Histologic Score: number of animals with score 1 ([2]; 5 mg/kg i.v. daily): 0 animals; Extent of Disease by Histologic Score: number of animals with score 2 ([2]; 5 mg/kg i.v. daily): 0 animals; Extent of Disease by Histologic Score: number of animals with score 3 ([2]; 5 mg/kg i.v. daily): 2 animals; Extent of Disease by Histologic Score: number of animals with score 4 ([2]; 5 mg/kg i.v. daily): 6 animals; Extent of disease by histologic score (combined): number of animals in scoring group 0.5 ([2]; tested at 5 mg/kg): 0 animals; Extent of disease by histologic score (combined): number of animals in scoring group 1 ([2]; tested at 5 mg/kg): 0 animals; Extent of disease by histologic score (combined): number of animals in scoring group 2 ([2]; tested at 5 mg/kg): 0 animals; Extent of disease by histologic score (combined): number of animals in scoring group 3 ([2]; tested at 5 mg/kg): 2 animals; Extent of disease by histologic score (combined): number of animals in scoring group 4 ([2]; tested at 5 mg/kg): 6 animals; Toxicity of amidines: Effect ([3]; tested at 5 mg/kg): no toxicity
6 | N=C(N)c1ccc(OCCCCOc2ccc(C(=N)N)cc2[N+](=O)[O-])c([N+](=O)[O-])c1 [Example 38] | 0 | 0 | 3 | 1 | 4 | 0 | 0 | 3 | 1 | 4 | – | Toxicity of amidines: Effect [3, 5]: Acute toxicity at 10 mg/kg and 5 mg/kg; Toxicity of amidines: Effect ([3]; tested at 2.5 mg/kg): no toxicity
7 | CN1CCN=C1c1ccc(OCCCCOc2ccc(C3=NCCN3C)cc2)cc1 [Example 41] | 0 | 0 | 2 | 4 | 2 | 0 | 0 | 2 | 4 | 2 | no toxicity | –
8 | CN1CCN=C1c1ccc(OCCCCCOc2ccc(C3=NCCN3C)cc2)cc1 [Example 42] | 0 | 0 | 2 | 3 | 3 | 0 | 0 | 2 | 3 | 3 | no toxicity | Toxicity of amidines: Effect [3, 5]: Acute toxicity at 10 mg/kg and 5 mg/kg
9 | COc1cc(C2=NCCN2)ccc1OCCCCCOc1ccc(C2=NCCN2)cc1OC [Example 43] | – | – | – | – | – | – | – | – | – | – | – | Extent of Disease by Histologic Score: number of animals with score 0.5 ([2]; 5 mg/kg i.v. daily): 1 animals; Extent of Disease by Histologic Score: number of animals with score 1 ([2]; 5 mg/kg i.v. daily): 3 animals; Extent of Disease by Histologic Score: number of animals with score 2 ([2]; 5 mg/kg i.v. daily): 1 animals; Extent of Disease by Histologic Score: number of animals with score 3 ([2]; 5 mg/kg i.v. daily): 2 animals; Extent of Disease by Histologic Score: number of animals with score 4 ([2]; 5 mg/kg i.v. daily): 0 animals; Extent of disease by histologic score (combined): number of animals in scoring group 0.5 ([2]; tested at 5 mg/kg): 1 animals; Extent of disease by histologic score (combined): number of animals in scoring group 1 ([2]; tested at 5 mg/kg): 3 animals; Extent of disease by histologic score (combined): number of animals in scoring group 2 ([2]; tested at 5 mg/kg): 1 animals; Extent of disease by histologic score (combined): number of animals in scoring group 3 ([2]; tested at 5 mg/kg): 2 animals; Extent of disease by histologic score (combined): number of animals in scoring group 4 ([2]; tested at 5 mg/kg): 0 animals; Efficacy in treating PCP compared with control ([2]; compound at 5 mg/kg): significantly better than the control; Toxicity of amidines: Effect ([3]; rat, in vivo, 5 mg/kg): no toxicity
10 | COc1cc(C2=NCCN2)ccc1OCCCOc1ccc(C2=NCCN2)cc1OC [Example 44] | 6 | 2 | 0 | 0 | 0 | 6 | 2 | 0 | 0 | 0 | no toxicity | Efficacy in treating Pneumocystis carinii (words) [2]: very effective in treating Pneumocystis carinii; Efficacy in treating Pneumocystis carinii (words) ([2]; listed as Compound 44): very good at one fourth the dose level of pentamidine; Efficacy in treating PCP compared with pentamidine ([2]; compound at 2.5 mg/kg): much better than pentamidine at only one fourth the dose
11 | N=C(N)c1ccc(OCCCOc2ccc(C(=N)N)cc2Br)c(Br)c1 [dibromopropamidine] | – | – | – | – | – | – | – | – | – | – | – | Known effectiveness against Pneumocystis carinii pneumonia [4]: some effectiveness against PCP
